The text below walks through data of patent publication US6890537B2, “Antimicrobial theta defensins and methods of using same” (The Regents of the University of California, priority 1999, dated 2005).

The structures appear in SMILES notation. Positions of bridges follow the written chain, without caps; N, C: chain ends. Residues, ends and D or L forms follow the SMILES beside them.

For one assay, the system named is E. coli ML 35. Description: Microbicidal suspension assay (colony counts). It counts as cell-based, Escherichia coli. As for the experimental part: (§1) Killing was quantified by colony counts. Panels B-D show incubation of the indicated organisms with RTD-1 peptide: Listeria monocytogenes and Staphylococcus aureus (Panel B); Salmonella typhimurium and Escherichia coli (Panel C); and Cryptococcus neoformans and Candida albicans (Panel D). The limit of detection (1 colony per plate) was equal to 1×10^3 colony forming units in the incubation mixture.
(§2) Additional antimicrobial assays were conducted on other microbial organisms. […] In FIG. 9A, S. aureus 502a was incubated with increasing concentrations of natural or synthetic peptide for 30 min at 37° C. in 10 mM PIPES, pH 7.4, containing 5 mM glucose. Killing was quantified by colony counts. […] The limit of detection (1 colony per plate) was equal to 1×10^3 colony forming units in the incubation mixture.
(§3) An acyclic version of theta defensin was also tested for antimicrobial activity. […] Killing activity was quantified by colony counts after 18 hrs.

Assay [1] deals with Cryptococcus neoformans 271A. Description: Agar diffusion assay. The following applies: 10, 30, 100 or 300 μg/ml; agar seeded with 1×10^6 colony forming units; FIG. 7. In kind it is cell-based. From the text: (§4) Agar diffusion assays and microbicidal suspension assays were used to examine the activity of theta defensin against Staphylococcus aureus 502A, Escherichia coli ML35, Listeria monocytogenes, and Cryptococcus neoformans.
(In general: Agar diffusion results depend on both activity and mobility in agar.)

For assay [2], the system named is Listeria monocytogenes EGD. Description: Agar diffusion assay. It counts as cell-based. The following applies: 10, 30, 100 or 300 μg/ml; agar seeded with 1×10^6 colony forming units; FIG. 7.
Description: as §4

Assay [3] relates to Staphylococcus aureus 502a. Description: Microbicidal suspension assay (colony counts). In kind it is cell-based. The protocol: S. aureus 502a was incubated with increasing concentrations of natural or synthetic theta defensin peptide. Killing was quantified by colony counts.
Killing was quantified by colony counts. […] The limit of detection (1 colony per plate) was equal to 1×10^3 colony forming units in the incubation mixture.
Killing activity was quantified by colony counts after 18 hrs.
Killing was quantified by colony counts.
as §2
It has been proposed that salt sensitivity of airway defensins underlies the susceptibility of cystic fibrosis patients to pulmonary infections.
as §3

Another assay concerns Escherichia coli ML35. As to the kind of experiment: Agar diffusion assay. In kind it is cell-based. As for the experimental part: (§5) The purified chromatographic peaks were screened for antibacterial activity against Escherichia coli ML35 and Staphylococcus aureus 502a. Briefly, antibacterial activity was screened with an agar diffusion assay using lyophilized samples of HPLC fractions dissolved in 5 μl of 0.01% acetic acid as described by Lehrer et al., J. Immunol. Methods 137:167-173 (1991)).
as §4

Assay [4] relates to Staphylococcus aureus 502a. Description: Agar diffusion assay. It counts as cell-based. As for the experimental part:
as §5, §4

Another assay deals with S. typhimurium. Description: Microbicidal suspension assay (colony counts). In kind it is cell-based, Salmonella typhimurium. The following applies: 2 hr, 37° C., 10 mM PIPES, pH 7.4, 5 mM glucose; FIG. 9C. The protocol: as §1, §2
A further assay deals with C. neoformans. Description: Microbicidal suspension assay (colony counts). The following applies: 2 hr, 37° C., 10 mM PIPES, pH 7.4, 5 mM glucose; FIG. 9D. It counts as cell-based, Cryptococcus neoformans. The protocol:
as §1, §2

For a further assay, the system named is C. albicans. Description: Microbicidal suspension assay (colony counts). It counts as cell-based, Candida albicans. As to conditions: 2 hr, 37° C., 10 mM PIPES, pH 7.4, 5 mM glucose; FIG. 9D. The protocol: as §1, §2
The next assay deals with L. monocytogenes. Description: Microbicidal suspension assay (colony counts). In kind it is cell-based, Listeria monocytogenes. The following applies: 2 hr, 37° C., 10 mM PIPES, pH 7.4, 5 mM glucose; FIG. 9B. The protocol:
as §1, §2

[5] abbreviates: 10, 30, 100 or 300 μg/ml, agar seeded with 1×10^6 colony forming units, FIG. 7.
The mark [6] stands for this setting: lyophilized HPLC fractions in 5 μl of 0.01% acetic acid, compared with other isolated leukocyte peptides.

Turning to `CC[C@H](C)[C@@H]1NC(=O)[C@@H]2CSSC[C@H](NC(=O)[C@H](CCCNC(=N)N)NC(=O)[C@@H]3CSSC[C@H](NC1=O)C(=O)N[C@@H]([C@@H](C)O)C(=O)N[C@@H](CCCNC(=N)N)C(=O)NCC(=O)N[C@@H](Cc1ccccc1)C(=O)N3)C(=O)N[C@@H](CC(C)C)C(=O)N[C@H]1CSSC[C@H](NC(=O)[C@H](C(C)C)NC(=O)CNC(=O)[C@H](CCCNC(=N)N)NC(=O)[C@H](CCCNC(=N)N)NC1=O)C(=O)N[C@@H](CCCNC(=N)N)C(=O)N2` [RTD-1] (cyclo(GFCRCLCRRGVCRCICTR); disulfide 3-16, 5-14, 7-12), the microbicidal activity entry in the assay with E. coli ML 35 (2 hr, 37° C., 10 mM PIPES, pH 7.4, 5 mM glucose, FIG. 9C) is reported as “killed”; in assay [3] (37° C., 10 mM PIPES, pH 7.4, 5 mM glucose, FIG. 9) it was “killed”; with S. typhimurium, “killed”; in the assay with C. neoformans, “killed”; in the assay with C. albicans, “killed”; with L. monocytogenes, “killed”. Moreover, the “activity of cyclic form relative to acyclic form” value (in the assay on E. coli ML 35 (gram negative bacteria (E. coli)); in assay [3] (gram positive bacteria (Staphylococcus))) was “about three times more active” each time. Besides, the zone of inhibition result (in assay [1]; in assay [2]; in the assay on Escherichia coli ML35 (setting [5]); in [4] (setting [5])) was “dose dependent increase in the zone of inhibition” in each case. Besides, in assay [3] (10 μg/ml peptide, 2 h incubation, NaCl concentrations as high as 150 mM, FIG. 9E), the “effect of NaCl on staphylocidal activity” value is “little effect”. In addition, the “peptide concentration reducing colony counts to below the level of detection” value in assay [3] (2 h at 37° C. in 10 mM PIPES, pH 7.4, FIG. 8) was ≥ 4 µg/mL. For the same compound, the “antibacterial activity (screen of purified chromatographic peaks)” value (in the assay with Escherichia coli ML35 (setting [6]); in [4] (setting [6])) was “greatest activity of any of the peptides isolated” each time.
